Data reported in patent US20250090565A1, “Compositions and Methods for Treating Bleeding and Bleeding Disorders” (YewSavin, Inc., priority 2021, published 2025).
“Also recorded” adds a separate entry of the source.

Tests used:
[1] = Bodyweight of Factor VIII deficient mice; format: in vivo; conditions: FVIII deficient mice, mean (spread)
[2] = tested on: ex vivo Hemophilia A human blood; assay: Ca+2ACT whole blood coagulation time test, Hemophilia A human blood; format: biochemical
From the text: (§1) While there are standardized tests such as Activated Partial Thromboplastin Time (“aPTT”) and Partial Thromboplastin Time (“PPT”) that measure blood clotting times (i.e., coagulation times), none of these tests are amenable to testing a small molecule drug, mainly due to the fact that the clotting agents added in these tests completely overcome the effect of the drug. A Calcium +2 ion Activated Coagulation Time test (“Ca+2ACT test”) was developed for measuring coagulation times that is devoid of the activators, thereby allowing drug candidates to be tested and verify their effects. The results described below use whole blood clotting assay and measure the coagulation of blood (i.e., blood's ability to clot), specifically, how much time is required for the clotting.
In this study, calcium chloride (“CaCl2”), a standard coagulating compound, is used as a control to compare the efficacy of various test samples. DMA is used as vehicle for various test samples. In a first study, a freshly prepared 5 μl test sample in DMA is added to a 100 μl blood specimen and then incubated in incubation slot of KC1 Delta machine Correlated Stago-Startmax for 37° C. for 3 min. For the control sample, 50 μl of CaCl2 solution is added, and timer started, to a 100 μl blood specimen to provide a baseline against the test sample. A stop watch, and automated electronic machine display, is used to measure the coagulation time in connection with an electronic signal provided the testing machine. Fresh citrated blood specimen from six healthy volunteers and six hemophilia patients, with initial standard citrate concentration in the collected blood of 3.5%, and “in cuvette” calcium +2 activation (by addition of CaCl2 solution) was obtained.
In this study, the effect of drug is measured by coagulation time of blood using the Ca+2ACT test, in presence of variable concentration of the drug in the test sample. The efficacy tests used 5 microliter of 40 mg/mL solution added to 155 microliter final volume in the clotting cuvette, corresponding to […] of the clotting mixture. For the dose dependence studies, we examined three persons. The twelve concentrations range chosen is 5 microliter of 0.05 mg/mL to 40 mg/mL, the vehicle being zero point concentration. This corresponds to mimimum concentration in the study of 1.66 microgram/mL or 1.66 ppm of the drug, not withstanding Vehicle Control of zero. […] FIG. 45 illustrates coagulation time versus concentration for the candidate molecule 1 for blood specimens from a second patient. FIG. 46 illustrates coagulation time versus concentration for the candidate molecule 1 for blood specimens from a third patient.
As discussed above, the effect is measured by coagulation time of blood using the Ca+2ACT test, in presence of variable concentration of the drug. Initial efficacy tests used 5 microliters of 40 mg/mL solution added to 155 microliter final volume in the clotting cuvette, corresponding to 1.29 mg/1000 mg of the clotting mixture. More recent tests used 10E-2 to 10E-22 as concentration range with 1E-2 interval. Samples were tested no later than eight hours after collection, and preferably, no later than four hours after collection. Often times, with very low and zero concentrations of clotting agents, although the instrument recorded a clotting time, the samples were fluid and partially coagulated at best. However, good fit was obtained at 1E-18 and good statistical difference was obtained at 1E-16, with significant statistical p-values at 10E-8 and higher concentrations, a very good range for drug design. […] The dose dependence study was performed using NDA solvent, and water in case of Eloctate™.

[3] = tested on: Factor VIII Deficient Mice; assay: Fibrin (fibrinogen) content of blood of Factor VIII deficient mice; format: in vivo; conditions: FVIII deficient mice, blood taken at end of experiment
Procedure: (§2) The purpose of this experiment was to evaluate the effectiveness of chalcones on tail bleeding time in mice. […] A distal 10 mm segment of each mouse's tail was amputated with a scalpel and the remaining tail stump was immediately immersed in a 50 mL Falcon tube containing isotonic saline pre-warmed in a water bath to 37° C. Each mouse was allowed to bleed freely for 20 minutes even if bleeding ceased, in order to detect any re-bleeding. Bleeding time was determined using a stopwatch. At the end of the 20 minutes, the experiment was terminated to avoid lethality. All animals were then bled additionally to obtain a sufficient amount of blood for determining fibrinogen content. Organs were collected, weighed and preserved for future assays.

FVIII-deficient plasma = assay: Thrombin generation assay (TGA) in FVIII-deficient plasma; format: biochemical, human
From the text: Thrombin generation is regarded as a significant indicator of the efficiency of blood clotting. Therefore, the thrombin generation assay (“TGA”) can be used as a proxy to estimate overall blood clotting efficiency of factor proteins and others agents from observing the clotting of plasma samples. The thrombin generation experiments were run using a microtiter plate fluorometer. Solvent systems consisting of a buffer, a fluorogenic substrate, and eight candidate compounds in inert solvents were added to pre-warmed citrated FVIII-deficient plasma along with tissue factor. The clotting reactions in the plasma-compound mixtures were initiated by adding calcium chloride solution to all the samples, and the fluorescence measurements recorded by the fluorimeter were compared against negative control (FVIII-deficient plasma without compounds or solvent system), vehicle control (FVIII-deficient plasma with solvent system only), and positive control (FVIII-deficient plasma mixed with regular plasma) reference measurements.
Each of the eight candidate compounds was tested via the TGA at three different concentrations.

[4] = tested on: Factor VIII Deficient Mice; assay: Tail bleeding assay in FVIII-KO mice; format: in vivo
Procedure: as §2

[5] = tested on: ex vivo healthy human blood; assay: Ca+2ACT whole blood coagulation time test, healthy human blood; format: biochemical; conditions: 1 mg/ml, healthy blood specimens; vehicle control 208.87 seconds
From the text: as §1
In this study, calcium chloride (“CaCl2”), a standard coagulating compound, is used as a control to compare the efficacy of various test samples. DMA is used as vehicle for various test samples. In a first study, a freshly prepared 5 μl test sample in DMA is added to a 100 μl blood specimen and then incubated in incubation slot of KC1 Delta machine Correlated Stago-Startmax for 37° C. for 3 min. For the control sample, 50 μl of CaCl2 solution is added, and timer started, to a 100 μl blood specimen to provide a baseline against the test sample. […]

heparinized rabbit blood = assay: Heparinized clotting test (in vitro); format: biochemical; conditions: rabbit blood 200 μL + heparin 1.25 IU, varying concentrations in DMSO (FIG. 7)
Procedure: The purpose of this experiment was to deduce a potential mechanism of action for chalcones in decreasing blood clotting and bleeding time. First, rabbit blood (200 μL) was added to the anticoagulant drug heparin (1.25 IU) in Eppendorf Tubes®. […] In untreated blood that is still inside a human or an animal, heparan sulfate that is found on cellular surfaces plays an equivalent role to heparin by forming a heparan-antithrombin complex and activating antithrombin.

normal plasma = assay: Thrombin generation assay (TGA) in normal plasma; format: biochemical, human
Wistar rats = assay: Ex vivo capillary clotting assay in Wistar rats; conditions: ex vivo oral, compared with chromatography fractions (FIG. 3)
From the text: During the bioassay-guided fractionation process, blood clotting time was used as a screen for active compounds, and a particular class of compounds known as chalcones was discovered to induce blood coagulation. FIG. 3 illustrates a sample result from an ex vivo capillary clotting assay in Wistar rats in accordance with various embodiments of the invention as described in further detail below.

[6] = tested on: Factor VIII Deficient Mice; assay: Capillary clotting time in Factor VIII deficient mice; format: in vivo; conditions: FVIII deficient mice; HF-2021a oral once daily for seven days; FVIII intravenous

SMILES: COc1cc(O)c(C(=O)C=Cc2ccc(O)cc2)c(OC)c1OC [HF-2021a, 1-(6-Hydroxy-2,3,4-trimethoxyphenyl)-3-(4-hydroxy-phenyl)prop-2-en-1-one]
- Bodyweight (Day 0) ([1]; Day 0 (baseline)): 17.4 (1.4)
- Bodyweight (Day 7) ([1]; Day 7): 18.8 (1.1)
- mean clotting time ([2]; 1 mg/mL, Hemophilia A blood specimens, vehicle control 228.92 seconds): 64.92 s
- coagulation time versus concentration ([2]; blood specimens of three patients, twelve concentrations (FIG. 44-46)): clear dependency
- Fibrin content (mg/dL) [3]: 281.2 (44.1) mg/dL
- thrombin generation ETP dependence on concentration (FVIII-deficient plasma; 0.01 mg/ml, 0.1 mg/ml, and 0.4 mg/ml in FVIII-deficient plasma): observed dose dependence
- effect on thrombin concentration and ETP compared with HEMLIBRA (FVIII-deficient plasma; 0.1 mg/ml versus any of the concentrations of HEMLIBRA (FIG. 28, 29)): comparable effects
- thrombin response compared with FVIII-deficient plasma containing 10% of normal FVIII (FVIII-deficient plasma; 0.4 mg/ml (FIG. 18, 19)): superior to that of 10% of normal FVIII activity
- effect on thrombin concentration and ETP compared with HEMLIBRA (FVIII-deficient plasma; 0.4 mg/ml versus highest tested HEMLIBRA concentration 75 μg/ml (FIG. 28, 29)): slightly larger effect
- thrombin concentration and ETP, combined with ELOCTATE (FVIII-deficient plasma; all tested concentrations, plasma of a patient who had taken ELOCTATE (FIG. 34, 35)): greater thrombin concentrations and ETPs than ELOCTATE® by itself
- Optical Density ([4]; FVIII deficient mice, tail bleeding experiment): 0.5 (0.1)
- tail bleeding time (in words) ([4]; FVIII-KO mice, repeated oral administrations, versus standard FVIII therapy (FIG. 4)): outperforming the standard FVIII therapy; also recorded: significantly improved
- Survival Rate ([4]; after 48 hours): 3/5 after
- Bleeding Time (Seconds) ([4]; tail amputation 10 mm, saline 37° C., HF-2021a oral once daily for seven days, FVIII intravenous): 41.8 (9.7) Seconds
- mean clotting time [5]: 74.12 s
- blood clotting time versus concentration (heparinized rabbit blood): dose dependence relationship was observed
- thrombin generation curves versus concentration (normal plasma; normal plasma (FIG. 20)): dose dependent response
- thrombin generation ETP versus concentration (normal plasma; normal plasma (FIG. 21)): dose dependent response is also observed
- effect on capillary clotting time (Wistar rats): nearly identical to that of the chromatography fractions
- Capillary Clotting Time (Seconds) [6]: 44.6 (13.2) Seconds
